Tests used:
Tg.rasH2 mice = experiment: Duplex Sequencing of mutation induction and mutation spectrum in lung, spleen and blood; assay type: in vivo, mouse
Source text: (§1) In this example, the impact of urethane is examined in different mouse tissue types (lung, spleen, blood) in an FDA-accepted cancer-predisposed mouse model: Tg.rasH2 (Saitoh et al. Oncogene 1990. PMID 2202951). This mouse contains ˜3 tandem copies of human HRAS with an activating enhancer mutation to boost expression on one hemizygous allele. These mice are predisposed to splenic angiosarcomas and lung adenocarcinomas, and are routinely used for 6 month carcinogenicity studies to substitute for 2 year wild-type animal studies. Tumors found in the mice have usually acquired activating mutations in one copy of the human HRAS protooncogene. Thus, the human HRAS transgene serves a model target cancer driver gene in these animals. Sequence analysis and mutation detection was performed for 4 native mouse genes (Rho, Hp, Ctnnb1, Polr1c), along with the native mouse Hras, Kras, Nras and human HRAS transgene.
(§2) In this example, Tg.rasH2 mice (n=5/group) were dosed with vehicle or a model mutation-inducing agent (e.g., a carcinogenic dose of urethane) (day 1,3,5) and sacrificed on day 29 for mutation detection by Duplex Sequencing in target tissues (lung, spleen) and whole blood. Target endogenous genes (Rho, Hp, Ctnnb1, Polr1c) and the native mouse Hras and human HRAS (trans)genes were also sequenced.

human HRAS transgene = experiment: Duplex Sequencing detection of clonally expanded cancer driver mutations after urethane dosing; assay type: in vivo, mouse
Source text: as §1, §2

mutation induction in peripheral blood (Tg.rasH2 mice; compared with spleen): closely mirrored that seen in the spleen
treated spleen samples with mutations in human HRAS codon 61 (human HRAS transgene; Tg.rasH2 mice, day 29, spleen, one at the same position, one on an adjoining base pair): two
urethane treated lung samples with the human HRAS codon 61 T>A mutation (human HRAS transgene; Tg.rasH2 mice, n=5/group, day 29, lung): 4/5
urethane-treated splenic samples with T>A transversion at the human oncogenic HRAS codon 61 hotspot (human HRAS transgene; Tg.rasH2 mice, n=5/group, spleen): 1/5
variant allele frequencies of the codon 61 mutation in exon 3 of human HRAS (human HRAS transgene; urethane treated lung samples, Tg.rasH2 mice, day 29, T→A transversions in the context CTG): 0.1%-1.8
cells encompassed by the highest allele fraction clone (human HRAS transgene; within the 29 days of the study): more than 90,000 cells
Compound: CCOC(N)=O [urethane]
triplet mutation spectrum (Tg.rasH2 mice; distinguishable from the vehicle control): strong propensity for T→A and T→C mutations within the context of “NTG”
tissue-specific variations in the extent of mutation induction (Tg.rasH2 mice; lung, spleen, blood): lung being observed to be more mutation prone than spleen and blood
doubling time of the selected clone cells (human HRAS transgene; by calculation, 29 days, assuming no cell death): ~1.8 days
